Measured values: patent US5525626A (priority 1989, dated 1996)

Experiments:
Assay type in all cases: cell-based
[1] = system: Z-R-75-1 breast cancer cells; test: 3H-thymidine assay; conditions: Homo sapiens, ZR-75-1
[2] = system: G-361 melanoma cells; test: 3H-thymidine assay; conditions: Homo sapiens, G-361
[3] = system: brain-tumor cells (glioblastoma cells); test: growth inhibition of brain-tumor cells; conditions: Tables 1 to 3
[4] = system: Tp 410 N neuroblastoma cells; test: 3H-thymidine assay; conditions: Homo sapiens, Neuroblastoma cell
[5] = system: CAKI-1 cells; test: 3H-thymidine assay; conditions: Homo sapiens, CAKI-1
Summary of the method: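 CAKI-1 human tumor cells were seeded at 10^4 cells per well in 24-well plates and grown about 48 hours until half-confluent. The medium was then swapped for one containing the test substance. Cells were washed twice in ice-cold PBS, and macromolecular 3H-radioactivity was precipitated with 5% trichloroacetic acid for one hour at 4° C.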

[6] = system: At T 20; test: 3H-thymidine assay; conditions: Mus musculus, AtT20
Summary of the method: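 Proliferation of AtT20 tumor cells was assessed by 3H-thymidine incorporation. 10^4 cells per well were seeded in 24-well plates and grown about 48 hours to half-confluence, then given medium with the active substance. Cells were washed twice in ice-cold PBS, high-molecular-weight 3H-radioactivity was precipitated with 5% trichloroacetic acid for one hour at 4° C, solubilized in 0.3M NaOH and counted.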

[7] = 1 μM/ml, read-out: 3H-thymidine tracer (%) of control
[8] = 2 μM/ml, read-out: 3H-thymidine tracer (%) of control
[9] = 4 μM/ml, read-out: 3H-thymidine tracer (%) of control
[10] = 8 μM/ml, read-out: 3H-thymidine tracer (%) of control
[11] = 16 μM/ml, read-out: 3H-thymidine tracer (%) of control
[12] = 25 μM/ml, read-out: 3H-thymidine tracer (%) of control
[13] = 50 μM/ml, read-out: 3H-thymidine tracer (%) of control
[14] = 100 μM/ml, read-out: 3H-thymidine tracer (%) of control
[15] = 250 μM/ml, read-out: 3H-thymidine tracer (%) of control
[16] = 500 μM/ml, read-out: 3H-thymidine tracer (%) of control
[17] = Table 4, *: maximum usable dosage, no 50% inhibition, read-out: active substance concentration at which 3H-thymidine insertion was 50% inhibited
[18] = Table 4, read-out: active substance concentration at which 3H-thymidine insertion was 50% inhibited

With `O=c1ccc2cc(O)c(O)cc2o1` [Esculetin, 6,7-hydroxy-1,2-benzopyrone] the activity at 1 µM [1, 7] was 98%, the activity at 2 µM [1, 8] was 96% and the activity at 4 µM [1, 9] was 89%. The activity at 8 µM [1, 10] was 84%, the activity at 16 µM [1, 11] was 77% and the activity at 25 µM [1, 12] was 70%. It also gave an activity at 50 µM [1, 13] of 61%, an activity at 100 µM [1, 14] of 53% and an activity at 250 µM [1, 15] of 46%. For the same molecule, the activity at 500 µM [1, 16] was 39%, the IC50 [1, 17] was 175 µM and the activity at 1 µM [2, 7] was 97%. The activity at 2 µM [2, 8] was 93%, the activity at 4 µM [2, 9] was 90% and the activity at 8 µM [2, 10] was 88%. For the same molecule, the activity at 16 µM [2, 11] was 72%, the activity at 25 µM [2, 12] was 68% and the activity at 50 µM [2, 13] was 60%. It also gave an activity at 100 µM [2, 14] of 58%, an activity at 250 µM [2, 15] of 52% and an activity at 500 µM [2, 16] of 49%. The IC50 [2, 17] was 500 µM, the “growth-inhibiting effect on brain-tumor cells” value [3] was “strong growth-inhibiting effect on brain-tumor cells” and the activity at 1 µM ([4]; 1 μM/ml, read-out: 3H-thymidine insertion (%) of control) was 94%. The activity at 2 µM ([4]; 2 μM/ml, read-out: 3H-thymidine insertion (%) of control) was 86%, the activity at 4 µM ([4]; 4 μM/ml, read-out: 3H-thymidine insertion (%) of control) was 75% and the activity at 8 µM ([4]; 8 μM/ml, read-out: 3H-thymidine insertion (%) of control) was 69%. For the same molecule, the activity at 16 µM ([4]; 16 μM/ml, read-out: 3H-thymidine insertion (%) of control) was 64%, the activity at 25 µM ([4]; 25 μM/ml, read-out: 3H-thymidine insertion (%) of control) was 48% and the activity at 50 µM ([4]; 50 μM/ml, read-out: 3H-thymidine insertion (%) of control) was 42%. The activity at 100 µM ([4]; 100 μM/ml, read-out: 3H-thymidine insertion (%) of control) was 40%, the activity at 250 µM ([4]; 250 μM/ml, read-out: 3H-thymidine insertion (%) of control) was 34% and the activity at 500 µM ([4]; 500 μM/ml, read-out: 3H-thymidine insertion (%) of control) was 29%. It also gave an IC50 [4, 18] of 25 µM, an activity at 1 µM [5, 7] of 96% and an activity at 2 µM [5, 8] of 93%. The activity at 4 µM [5, 9] was 88%, the activity at 8 µM [5, 10] was 80% and the activity at 16 µM [5, 11] was 62%. For the same molecule, the activity at 25 µM [5, 12] was 58%, the activity at 50 µM [5, 13] was 53% and the activity at 100 µM [5, 14] was 45%. For the same molecule, the activity at 150 µM ([5]; 150 μM/ml, read-out: 3H-thymidine tracer (%) of control) was 40%, the activity at 500 µM [5, 16] was 32% and the IC50 [5, 17] was 50 µM. For the same molecule, the activity at 1 µM [6, 7] was 93%, the activity at 2 µM [6, 8] was 89% and the activity at 4 µM [6, 9] was 86%. For the same molecule, the activity at 8 µM [6, 10] was 75%, the activity at 16 µM [6, 11] was 75% and the activity at 25 µM [6, 12] was 67%. The activity at 50 µM [6, 13] was 62%, the activity at 100 µM [6, 14] was 55% and the activity at 250 µM [6, 15] was 49%. The activity at 500 µM [6, 16] was 44% and the IC50 [6, 18] was 250 µM.
